Assay results reported in patent publication US12565475B2, “Small molecule compound inhibiting signal transmission path of TLR7 and TLR9 and use thereof” (AJOU UNIVERSITY INDUSTRY-ACADEMIC COOPERATION FOUNDATION, priority 2019, dated 2026).

Key:
[1] = target: T1, TLR9 (Homo sapiens, UniProt Q9NR96); conditions: Target TLR9; values from cited literature/patent; cited from earlier work
T1 sequence (Q9NR96 26-1032): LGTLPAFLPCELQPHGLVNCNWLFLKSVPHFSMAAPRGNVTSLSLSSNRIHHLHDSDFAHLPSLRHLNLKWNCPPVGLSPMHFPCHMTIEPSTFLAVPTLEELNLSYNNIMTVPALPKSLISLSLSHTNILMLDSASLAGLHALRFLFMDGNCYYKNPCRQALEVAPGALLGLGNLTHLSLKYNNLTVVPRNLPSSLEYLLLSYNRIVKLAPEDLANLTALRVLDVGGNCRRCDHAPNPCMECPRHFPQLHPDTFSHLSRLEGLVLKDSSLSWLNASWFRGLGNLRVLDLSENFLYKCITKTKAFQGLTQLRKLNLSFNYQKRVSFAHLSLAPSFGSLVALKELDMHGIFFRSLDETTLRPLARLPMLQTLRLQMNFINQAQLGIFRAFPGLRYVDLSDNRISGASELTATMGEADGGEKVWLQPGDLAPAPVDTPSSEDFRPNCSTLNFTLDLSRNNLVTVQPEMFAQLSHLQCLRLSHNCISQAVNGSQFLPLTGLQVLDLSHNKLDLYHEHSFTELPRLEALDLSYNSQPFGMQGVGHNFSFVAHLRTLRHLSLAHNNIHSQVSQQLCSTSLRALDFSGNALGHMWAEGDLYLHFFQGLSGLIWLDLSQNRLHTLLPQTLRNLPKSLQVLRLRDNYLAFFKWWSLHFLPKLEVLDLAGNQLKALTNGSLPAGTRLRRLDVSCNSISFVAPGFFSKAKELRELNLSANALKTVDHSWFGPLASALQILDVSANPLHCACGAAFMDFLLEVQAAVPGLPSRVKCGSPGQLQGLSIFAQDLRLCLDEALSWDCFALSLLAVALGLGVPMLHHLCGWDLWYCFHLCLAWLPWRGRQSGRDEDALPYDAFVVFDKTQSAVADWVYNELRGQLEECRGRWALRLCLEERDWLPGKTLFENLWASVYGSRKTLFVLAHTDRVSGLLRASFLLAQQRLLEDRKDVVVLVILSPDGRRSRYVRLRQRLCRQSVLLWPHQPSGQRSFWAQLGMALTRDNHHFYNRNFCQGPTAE

[2] = system: RAW 264.7 cells; assay: MTT cell viability / cytotoxicity assay; assay type: cell-based, murine; conditions: 50 μM, 24 hours
Experimental: RAW 264.7 cells were seeded onto 96-well cell culture plate at a density of 2×10^4 cells/well and allowed to stabilize overnight. The cells were treated with test compounds or a negative control (DMSO; dimethyl sulfoxide) for 24 hours, where the final DMSO concentration of the treated well was 0.25%. Then, the medium was removed, and 500 μg/ml of an MTT (3-(4,5-dimethylthiazol-2-yl)-2,5-diphenyltetrazolium bromide, InvivoGen Ltd.) solution was added to each well. After 3 hours, the solution was replaced with DMSO (Biosesang Co. Ltd., Korea), and incubated for an additional 30 minutes to complete formazan dissolution. Absorbance was measured by a microplate colorimetric reader at a wavelength of 595 nm and normalized to the control for the determination of the cell viability. All incubations were performed under the same conditions as described above.
Before testing the antagonistic properties of the selected compounds, an MTT (3-(4,5-dimethylthiazol-2-yl)-2,5-diphenyltetrazolium bromide) assay was performed, whereby the cytotoxicity of the compounds in a murine macrophage cell line (RAW 264.7) was monitored. […] The other ligands were excluded as test subjects due to the high cytotoxicity thereof.

[3] = target: T2, TLR7 (Mus musculus, UniProt P58681); assay: TLR7-mediated TNF-α secretion (imiquimod stimulation), ELISA; assay type: cell-based, murine; conditions: for inhibitory efficacy on TLR7-mediated TNF-α secretion: RAW 264.7, 10 or 50 μM, imiquimod (FIG. 4B)
T2 construct: endogenous in cells; host or cells: RAW 264.7
T2 sequence (P58681 27-1050): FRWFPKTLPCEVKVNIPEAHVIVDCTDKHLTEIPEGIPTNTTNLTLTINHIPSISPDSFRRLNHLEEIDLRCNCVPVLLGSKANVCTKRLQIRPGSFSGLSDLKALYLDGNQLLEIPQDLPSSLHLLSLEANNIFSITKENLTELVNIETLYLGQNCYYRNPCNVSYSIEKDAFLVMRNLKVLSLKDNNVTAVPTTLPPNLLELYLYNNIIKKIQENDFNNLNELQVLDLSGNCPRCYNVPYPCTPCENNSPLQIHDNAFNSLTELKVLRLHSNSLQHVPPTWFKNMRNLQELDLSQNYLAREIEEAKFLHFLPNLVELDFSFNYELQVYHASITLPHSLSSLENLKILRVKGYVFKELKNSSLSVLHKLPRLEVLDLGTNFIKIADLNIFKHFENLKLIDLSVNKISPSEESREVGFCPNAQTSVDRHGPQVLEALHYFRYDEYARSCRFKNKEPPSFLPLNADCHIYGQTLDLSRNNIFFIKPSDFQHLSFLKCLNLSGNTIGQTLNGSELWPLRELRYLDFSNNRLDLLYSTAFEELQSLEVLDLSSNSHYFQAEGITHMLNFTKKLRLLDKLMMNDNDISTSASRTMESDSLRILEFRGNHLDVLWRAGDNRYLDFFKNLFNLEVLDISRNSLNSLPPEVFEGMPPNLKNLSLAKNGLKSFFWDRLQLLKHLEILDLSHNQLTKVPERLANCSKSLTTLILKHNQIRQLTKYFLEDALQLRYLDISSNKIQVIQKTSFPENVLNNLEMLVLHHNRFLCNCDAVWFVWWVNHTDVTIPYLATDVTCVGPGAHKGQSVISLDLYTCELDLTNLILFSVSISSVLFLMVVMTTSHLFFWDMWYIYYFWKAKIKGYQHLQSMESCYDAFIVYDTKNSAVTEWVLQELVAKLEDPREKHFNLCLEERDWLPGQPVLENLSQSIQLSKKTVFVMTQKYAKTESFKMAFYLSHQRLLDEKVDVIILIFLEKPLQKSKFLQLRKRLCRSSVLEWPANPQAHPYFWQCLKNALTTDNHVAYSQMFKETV
Experimental: (§1) Agonists specific to TLR1/TLR2 (Pam3CSK4), TLR2/TLR6 (FSL-1), TLR3 (Poly I:C), TLR7 (imiquimod), and TLR8 (TL8-506) were purchased from InvivoGen Ltd. (Hong-Kong, China), and a TLR4-specific agonist (LPS from E. coli O111:B4) was purchased from Sigma-Aldrich, Inc. For TLR9-specific stimulation, class C CpG-ODN (ODN2395, 5′-TCGTCGTTTTCGGCGCGCGCCG-3′) having full phosphorothioate backbone modification was synthesized (Bioneer, Inc., Daejeon, Korea). All TLR agonists were dissolved in deionized water and applied to a culture media for TLR activation. The cells were treated with test compounds or a control medium for 1 hour, and then stimulated with a TLR agonist for 4 hours, or 24 hours in the case of poly(I:C), and the cytokine secretion was monitored.
(§2) RAW 264.7 or differentiated THP-1 cell lines were seeded onto a 96-well culture plate at a density of 2×10^4 cells/well. The cells were treated with test compounds for 1 hour followed by the stimulation with TLR agonists for 4 hours. The supernatant was transferred to pre-coated assay plates, and the secretion levels of mouse and human TNF-α were measured by respective ELISA kits (Invitrogen, Carlsbad, CA, USA). All experiments were performed according to the manufacturer's instructions. Absorbance was measured by a microplate reader spectrophotometer (Molecular Devices, Inc., San Jose, CA, USA), and data was interpolated from a standard curve using SoftMax Pro 5.3 software (Molecular Devices, Inc.).
(§3) In order to evaluate the antagonistic effect of each compound on TLR7/TLR9 through ELISA (enzyme-linked immunosorbent assay), RAW 264.7 cells were pretreated with the eight compounds followed by the stimulation with a TLR7-specific agonist (imiquimod, 3.61 μM) or with a TLR9-specific agonist (ODN2395, 0.5 μM). […] Since the two ligands had no agonistic effect per se (FIG. 3B), the increased cytokine production may be due to cell activation (or non-specific cellular stress) by co-treatment. Consequently, TIC10 was selected as the most suitable lead for further optimization to improve the inhibitory potency against both TLR7 and TLR9.

[4] = target: T3, TLR9 (Mus musculus, UniProt Q9EQU3); assay: TLR9-mediated TNF-α secretion (ODN2395 stimulation), ELISA; assay type: cell-based, murine; conditions: for inhibitory efficacy on TLR9-mediated TNF-α secretion: RAW 264.7, 10 or 50 μM, ODN2395 (FIG. 4A)
T3 construct: endogenous in cells; host or cells: RAW 264.7
T3 sequence (Q9EQU3 26-1032): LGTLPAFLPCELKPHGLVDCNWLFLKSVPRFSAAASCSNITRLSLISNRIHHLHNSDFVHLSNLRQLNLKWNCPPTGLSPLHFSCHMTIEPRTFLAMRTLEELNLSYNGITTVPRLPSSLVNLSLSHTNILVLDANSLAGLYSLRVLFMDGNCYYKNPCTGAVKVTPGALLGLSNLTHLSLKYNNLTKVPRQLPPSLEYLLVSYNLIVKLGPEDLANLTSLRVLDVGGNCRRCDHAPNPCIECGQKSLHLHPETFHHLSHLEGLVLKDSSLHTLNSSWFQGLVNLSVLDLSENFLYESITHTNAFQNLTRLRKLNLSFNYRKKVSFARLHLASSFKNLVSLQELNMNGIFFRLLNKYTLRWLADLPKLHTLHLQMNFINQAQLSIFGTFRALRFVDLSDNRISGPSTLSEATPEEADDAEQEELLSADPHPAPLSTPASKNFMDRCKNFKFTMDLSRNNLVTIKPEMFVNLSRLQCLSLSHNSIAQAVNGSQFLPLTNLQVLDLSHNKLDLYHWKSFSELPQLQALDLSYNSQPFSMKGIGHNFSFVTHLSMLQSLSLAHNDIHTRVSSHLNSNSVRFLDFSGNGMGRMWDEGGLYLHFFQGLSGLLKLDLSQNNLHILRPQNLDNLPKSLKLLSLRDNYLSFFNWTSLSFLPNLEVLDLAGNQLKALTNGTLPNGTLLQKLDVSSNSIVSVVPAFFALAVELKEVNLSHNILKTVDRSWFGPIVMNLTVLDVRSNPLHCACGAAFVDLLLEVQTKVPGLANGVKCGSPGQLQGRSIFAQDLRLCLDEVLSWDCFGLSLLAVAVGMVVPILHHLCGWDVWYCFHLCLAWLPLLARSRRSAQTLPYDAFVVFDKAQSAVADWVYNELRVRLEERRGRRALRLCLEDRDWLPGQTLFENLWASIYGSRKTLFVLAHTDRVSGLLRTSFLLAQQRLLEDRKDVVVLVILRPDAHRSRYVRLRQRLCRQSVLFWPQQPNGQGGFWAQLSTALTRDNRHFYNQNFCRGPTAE
Experimental: as §1, §2, §3

[5] = system: RAW 264.7 cells; assay: Agonistic activity: TNF-α secretion after stimulation with compound alone (ELISA); assay type: cell-based, murine; conditions: compound alone 24 hours

| SMILES | IC50 [1] [µM] | inhibitory efficacy on TLR7-mediated TNF-α secretion [3] | inhibitory efficacy on TLR9-mediated TNF-α secretion [4] | other results |
| --- | --- | --- | --- | --- |
| CN1CCN(c2ccc(-c3nc(NCCN4CCOCC4)c4ccccc4n3)cc2)CC1 [CHEMBL457704] | 0.02 | – | – | – |
| CN(C)CCNc1nc(-c2ccc(N3CCN(C)CC3)cc2)nc2ccccc12 [CHEMBL515364] | 0.03 | – | – | – |
| COc1cc2nc(-c3ccc(N4CCN(C)CC4)cc3)nc(NCCN3CCOCC3)c2cc1OC [CPG-52364] | 0.0046 | – | – | – |
| COc1ccc(-c2cnc(NCc3cccc(OC)c3O)n2C)cc1 [TIC10, 2-methoxy-6-({[5-(4-methoxyphenyl)-1-methyl-1H-imidazol-2-yl]amino}methyl)phenol] | – | – | – | cytotoxicity (MTT assay) [2]: non-toxic or marginally toxic; inhibition of TLR7-mediated TNF-α secretion ([3]; RAW 264.7, at 50 µM, pretreated 1 hour, imiquimod 3.61 μM 4 hours): inhibited; inhibition of TLR9-mediated TNF-α secretion ([4]; RAW 264.7, 50 μM, pretreated 1 hour, ODN2395 0.5 μM 4 hours): significantly inhibit; expression of proinflammatory cytokine TNF-α on stimulation with ligand alone (agonistic role) [5]: did not induce the expression of proinflammatory cytokine TNF-α |
| CCOc1ccc(-c2cnc(NCc3ccc(OC)c(OC)c3OC)n2C)cc1 [TIC10-3] | – | improved inhibitory efficacy compared to TIC10 | improved inhibitory efficacy compared to TIC10 | – |
| CCOc1ccc(-c2cnc(NCc3cccc(OC)c3OC)n2C)cc1 [TIC10-8] | – | improved inhibitory efficacy compared to TIC10 | improved inhibitory efficacy compared to TIC10 | – |
